In patent publication US7462716B2, “Statin derivatives” (Nicox S.A., priority 2003, dated 2008):
Read-outs that look alike come from different tables or passages of the source. Marks after values point to notes of the source that are not given here.

Key:
[1] = tested on: isolated rabbit thoracic aorta preparations; experiment: Vascular tone: relaxation of noradrenaline-precontracted isolated aortic rings; conditions: Oryctolagus cuniculus; rabbit thoracic aorta rings contracted with noradrenaline 1 μM, functional endothelium; ± sem; read-out: IC50 (concentration giving 50% reversal of NA contraction)
Experimental: The ability of statin nitroderivatives to induce vasorelaxation in comparison to native statins, was tested in vitro in isolated rabbit thoracic aorta preparations (Wanstall J. C. et al., Br. J. Pharmacol., 134:463-472, 2001). Male New Zealand rabbits were anaesthetized with thiopental-Na (50 mg/kg, iv), sacrificed by exsanguinations and then the thorax was opened and the aorta dissected. Single ring preparations (4 mm in length) of thoracic aorta were set up in physiological salt solution (PSS) at 37° C. in small organ chambers (5 ml). The composition of PSS was (mM): NaCl 130, NaHCO3 14.9, KH2PO4 1.2, MgSO4 1.2, HEPES 10, CaCl2, ascorbic acid […] and glucose 1.1 (95% O2/5% CO2; pH 7.4). Each ring was mounted under 2 g passive tension in 5 ml organ bath. Isometric tension was recorded with a Grass transducer (Grass FT03) attached to a BIOPAC MP150 System. Preparations were allowed to equilibrate for 1 h, then contracted submaximally with noradrenaline (NA, 1 μM) and, when the contraction was stable, acetylcholine (ACh, 10 μM) was added. A relaxant response to ACh indicated the presence of a functional endothelium. When a stable precontraction was reached, a cumulative concentration-response curve to either of the vasorelaxant agents was obtained in the presence of a functional endothelium. Time intervals between different concentrations were based on the time needed to reach a full response. Moreover, the effect of the soluble guanylyl cyclase inhibitor ODQ (1-H-(1,2,4)-oxadiazol(4,3-a)quinoxalin-1-one) on the dilator responses elicited by the compounds was examined preincubating the aortic rings with ODQ (10 μM) for 20 min. Responses to vasorelaxing agents were measured from the plateau of NA contraction. The IC50 (concentration giving 50% reversal of NA contraction) was interpolated from the plots of relaxant-response vs log molar concentration of tested compound.
During the experimental period, the plateau obtained with NA was stable without significant spontaneous loss of contraction in the aortic rings.
As shown in the following Table 1, the nitroderivatives of the invention were able to induce relaxation in a concentration-dependent manner. Furthermore, in experiments performed in presence of ODQ (10 μM), the vasorelaxant responses to all the tested drugs were inhibited.
IC50 is the concentration which inhibits 50% of the response. Effects of Nitrostatin Derivatives on Inflammatory Pathways In Vitro

iNOS = experiment: Western blot of iNOS protein in LPS-stimulated RAW264.7 cells; type: cell-based
Experimental: (§1) The experiments were performed using RAW264.7 monocyte macrophage cell line. […] At the end of the incubation, the cells were harvested in lysis buffer and the protein content was measured. Western Blot of inducible iNOS and COX2 proteins (representatives of an ongoing inflammatory process) was performed. The obtained results reported in Table 2 are expressed as % reduction of optical density of each treatment vs. LPS-treated samples.

COX2 = experiment: Western blot of COX2 protein in LPS-stimulated RAW264.7 cells; type: cell-based
Experimental: as §1

murine hindlimb ischemia = experiment: Murine hindlimb ischemia model (capillary density, clinical outcome); type: in vivo, CD1 male mice
Experimental: Angiogenesis is a primary response to local tissue hypoxia and is likely involved in the restoration of blood flow in ischemic diseases such as acute coronary syndromes and occlusive peripheral vascular disease. […] After 3 days, mice were anaesthetized and left hindlimb ischemia was induced by electro-coagulation of the upper part of femoral artery. Treatment was continued for the following 2 weeks after surgery. Systolic blood pressure was measured by tail cuff technique at 7 and 14 days. The clinical outcome at 14 days was determined by counting the number of necrotic or lost nails in the ischemic foot as well as the number of auto-amputation events. At 14 days from ischemia induction, hindlimbs of anaesthetized mice were perfusion-fixed, both adductors were coded and histologically processed. Capillary and arteriolar densities (ncap/mm^2 and nart/mm^2) were determined.

leukocyte adhesion = experiment: Ex vivo leukocyte adhesion to thrombin-stimulated arterial segments of dosed ApoE knockout mice; type: in vivo; conditions: ApoE K/O mice, pravastatin 40 mg/kg po or equimolar dose daily for 5 days
Experimental: The interaction between leukocytes and the vascular endothelium is a crucial inflammatory step in the atherogenic process.
Leukocytes were isolated from spleen, centrifuged, RBCs lysed with water. Arterial segments prepared—aortic & thoracic regions opened longitudinally and pinned out luminal side up. Radiolabelled leukocytes (^51Cr-leukocytes) are incubated with thrombin-stimulated (10 UmL−1 for 10 min.) segments for 30 min. Segments are washed with medium and adhesion measured by gamma counter.

[2] = tested on: U46619-induced pulmonary thromboembolism; experiment: Protection from U46619-induced pulmonary thromboembolism; type: in vivo, CD-1 mice; conditions: mice, U46619 0.2 mg/kg iv
Experimental: 1 (equimolar doses) or vehicle. 1-3 hrs later the animals were injected into a tail vein with U46619 (0.2 mg/kg), a stable TxA2 analog. As previously described (Momi et al., Eur. J. Pharmacol. 397:177-185, 2000), this dose of the agonist caused 80 to 90% mortality within 3 min. in the control group. In each experimental session at least six animals per treatment group were tested; control groups were run at the beginning and at the end of every experimental session. Protection against agonist-induced thromboembolism was expressed as (1-Tdrug/Tsaline)×100, were Tdrug is the mortality rate in drug-treated mice, and Tsaline is the number of non surviving control animals which received […] only.
The results were expressed as percentage of protection from U46619-induced pulmonary thromboembolism as compared to the control group.

human platelets = experiment: U46619-induced platelet aggregation in vitro; type: cell-based
Experimental: Platelets are prominent components of the thrombi.
Compounds were incubated at 37° C. for 2 min before adding U46619, an aggregating agent, TxA2 analog. Aggregation was followed for 5 min and the maximal amplitude (cm) was measured. DMSO (0.05%) was used as vehicle. Compounds were tested at concentrations ranging from 50 to 200 μM.

Tissue factor (TF) = experiment: Tissue factor expression in LPS-stimulated blood mononuclear cells; type: cell-based; conditions: 50 μM; human MNC, LPS 1 μg/ml, 3 h; mean ± SEM
Experimental: Tissue factor (TF) is a major regulator of homeostasis and thrombosis. […] MNC were obtained from fresh blood by density gradient (Ficoll-Hypaque) centrifugation and resuspended in serum-free RPMI medium at the concentration of 2−3×10^6/ml. […] After incubation for 3 h at 37° C., TF expression in MNC was assessed by 1) functional assay (Semeraro et al., 1983. Immunology; 50: 529-35) on intact cells; 2) immunological assay (Imubind, Instrumentation Laboratory, Milan) on Triton X-100 cell extracts; 3) RT-PCR (Rossiello et al. Thromb Haemost 2000; 84:453-59).

[3] = 100 μM, RAW264.7, LPS 1 μg/ml 8 h
[4] = mice, 14 days after ischemia, in chow pravastatin 40 mg/kg or nitroderivative 48 mg/kg
[5] = 10 μM, RAW264.7, LPS 1 μg/ml 16 h, negative = increase vs LPS

## CC[C@H](C)C(=O)O[C@H]1C[C@H](O)C=C2C=C[C@H](C)[C@H](CCC(O)C[C@H](O)CC(=O)OCCCCO[N+](=O)[O-])[C@H]21 (relative stereo) [Compound of EX. 1, [1S-[1α(βS*,δS*),2α,6α,8β-(R*),8aα]]-1,2,6,7,8,8a-hexahydro-β,δ,6-trihydroxy-2-methyl-8-(2-methyl-1-oxobutoxy)-1-naphthaleneheptanoic acid 4-(nitrooxy)butyl ester]
[1]
  IC50: 2.4 ± 0.6 µM
iNOS; [3]
  iNOS (% reduction vs LPS): 55.2 ± 11.8%
COX2; [3]
  COX2 (% reduction vs LPS): 74.9 ± 4.4%
Murine hindlimb ischemia; 14 days, necrotic or lost nails, auto-amputation events
  clinical outcome in mice with hindlimb ischemia: ameliorates clinical outcome
Murine hindlimb ischemia; [4]
  N capillaries/mm^2 in contralateral adductor muscle: 660 ± 40 N capillaries/mm^2
  N capillaries/mm^2 in ischemic adductor muscle: 1116 ± 53^§§**^++ N capillaries/mm^2
Leukocyte adhesion
  Leukocyte adhesion (%) (thoracic aorta): 9.3 ± 3 %
[2]; 12 mg/kg ip
  Antithrombotic activity (%) 1-h before challenge: 30* %
  Antithrombotic activity (%) 3-h before challenge: 40* %
[2]; 24 mg/kg ip
  Antithrombotic activity (%) 1-h before challenge: 40*+ %
  Antithrombotic activity (%) 3-h before challenge: 55*+ %
Human platelets; Platelet, human gel filtered platelets, read-out: Platelet aggregation (GFP) IC50
  IC50: 101 ± 10 µM
Human platelets; human platelet rich plasma, read-out: Platelet aggregation (PRP) IC50
  IC50: 74 ± 7 µM
Tissue factor (TF)
  TF in LPS-stimulated MNC: Activity: 16 ± 4.9 AU/10^6 cells
  TF in LPS-stimulated MNC: Antigen: 0.65 ± 0.11 ng/mg protein

## CC(C)n1c(/C=C/[C@@H](O)C[C@@H](O)CC(=O)OCCCCO[N+](=O)[O-])c(-c2ccc(F)cc2)c2ccccc21 (relative stereo) [Compound of EX. 3, [R*,S*-(E)]-7-[3-(4-fluorophenyl)-1-(1-methylethyl)-1H-indol-2-yl]-3,5-dihydroxy-6-heptanoic acid 4-(nitrooxy)butyl ester]
[1]
  IC50: 13.4 ± 3.5 µM
iNOS; [5]
  iNOS (% reduction vs LPS): 44.8 ± 11.9%
COX2; [5]
  COX2 (% reduction vs LPS): 53.9 ± 6.1%

## CC(C)n1c(/C=C/[C@@H](O)C[C@@H](O)CC(=O)OCc2ccc(CO[N+](=O)[O-])cc2)c(-c2ccc(F)cc2)c2ccccc21 (relative stereo) [Compound of EX. 4, [R*,S*-(E)]-7-[3-(4-fluorophenyl)-1-(1-methylethyl)-1H-indol-2-yl]-3,5-dihydroxy-6-heptanoic acid 4-(nitrooxymethyl)benzyl ester]
[1]
  IC50: 8.7 ± 3.3 µM
iNOS; [5]
  iNOS (% reduction vs LPS): 22.4 ± 9.6%
COX2; [5]
  COX2 (% reduction vs LPS): 19.4 ± 6.5%

## CC(C)c1c(C(=O)Nc2ccccc2)c(-c2ccccc2)c(-c2ccc(F)cc2)n1CC[C@@H](O)C[C@@H](O)CC(=O)O [Atorvastatin, atorvastatin, reference compound]
iNOS; [5]
  iNOS (% reduction vs LPS): 20 ± 14%

## CC(C)c1c(C(=O)Nc2ccccc2)c(-c2ccccc2)c(-c2ccc(F)cc2)n1CC[C@@H](O)C[C@@H](O)CC(=O)OCCCCO[N+](=O)[O-] [Compound of EX. 7, (βR,δR)-2(4-fluorophenyl)-β,δ-dihydroxy-5-(1-methylethyl)-3-phenyl-4-[(phenylamino)carbon-yl]-1H-pyrrole-1-heptanoic acid 4-(nitrooxy)butyl ester]
iNOS; [5]
  iNOS (% reduction vs LPS): 45 ± 9%

## CC(C)n1c(/C=C/C(O)CC(O)CC(=O)O)c(-c2ccc(F)cc2)c2ccccc21 (stereo not shown) [Fluvastatin, fluvastatin, reference compound]
[1]
  IC50: > 30 µM
iNOS; [5]
  iNOS (% reduction vs LPS): −14.8 ± 5.9%
COX2; [5]
  COX2 (% reduction vs LPS): −2.8 ± 3.7%

## CC[C@H](C)C(=O)O[C@H]1C[C@H](O)C=C2C=C[C@H](C)[C@H](CC[C@@H](O)C[C@@H](O)CC(=O)O)[C@H]21 [Pravastatin, pravastatin, reference compound]
[1]
  IC50: > 30 µM
iNOS; [3]
  iNOS (% reduction vs LPS): 4.7 ± 3.6%
COX2; [3]
  COX2 (% reduction vs LPS): 26.9 ± 7.9%
Murine hindlimb ischemia; [4]
  N capillaries/mm^2 in contralateral adductor muscle: 736 ± 40 N capillaries/mm^2
Leukocyte adhesion
  Leukocyte adhesion (%) (thoracic aorta): 23.0 ± 6%
[2]; 10 mg/kg ip
  Antithrombotic activity (%) 1-h before challenge: 15%
  Antithrombotic activity (%) 3-h before challenge: 10%
[2]; 20 mg/kg ip
  Antithrombotic activity (%) 1-h before challenge: 25%
  Antithrombotic activity (%) 3-h before challenge: 20%
Tissue factor (TF)
  TF in LPS-stimulated MNC: Activity: 189 ± 37.6 AU/10^6 cells
  TF in LPS-stimulated MNC: Antigen: 4.4 ± 1.3 ng/mg protein
